The results in this text go back to patent publication US20080051387A1, “TETRAHYDROPYRIDO[3,4-D]PYRIMIDINES AND RELATED ANALOGUES” (priority 2006, published 2008).

Like-named read-outs stand apart in the source and are kept apart here. A value given as a limit tells only on which side of the number the result lay.

For the experiment, the target named is T1, chimeric human H3 receptor (Homo sapiens, UniProt Q9Y5N1).
T1 construct: rat Galpha-i2 (Gnai2, rat); made in house; host or cells: Sf9 insect cells (baculovirus); P2 membranes
The experiment in a line: Chimeric human H3 receptor screening GTP binding assay (inhibition of histamine-stimulated GTP-gamma35S binding, Example 8). It counts as biochemical. In outline:
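Sf9 membranes co-expressing chimeric human H3 receptor and heterotrimeric G-protein (35 μg protein) incubated 60 min at room temperature with 4 μM compound, 1 μM histamine and 125 pM GTP-gamma35S in pH 7.4 buffer with 10 μM GDP. Filter-bound radioactivity, nonspecific (10 μM GTP-gammaS) subtracted, reported as % inhibition of histamine signal.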
(In general: GTPγS is a poorly hydrolysed GTP analogue; its binding reports G protein activation.)

[1] abbreviates: 1 h, assay of Example 8, symbol "!" in column headed Ki, read-out: percent inhibition of agonist-induced GTP-gammaS binding to H3.
The mark [2] stands for this setting: symbol ! in Ki, test compound 4 μM, 1 μM histamine, read-out: percent inhibition of agonist-induced GTP-gammaS binding to H3.
Where [3] appears, read: 1 h, assay described in Example 8, symbol "!" in column headed Ki, read-out: Ki ("!": percent inhibition of agonist-induced GTP-gammaS binding to H3).

T1 sequence (Q9Y5N1 with tags, fused parts or gaps): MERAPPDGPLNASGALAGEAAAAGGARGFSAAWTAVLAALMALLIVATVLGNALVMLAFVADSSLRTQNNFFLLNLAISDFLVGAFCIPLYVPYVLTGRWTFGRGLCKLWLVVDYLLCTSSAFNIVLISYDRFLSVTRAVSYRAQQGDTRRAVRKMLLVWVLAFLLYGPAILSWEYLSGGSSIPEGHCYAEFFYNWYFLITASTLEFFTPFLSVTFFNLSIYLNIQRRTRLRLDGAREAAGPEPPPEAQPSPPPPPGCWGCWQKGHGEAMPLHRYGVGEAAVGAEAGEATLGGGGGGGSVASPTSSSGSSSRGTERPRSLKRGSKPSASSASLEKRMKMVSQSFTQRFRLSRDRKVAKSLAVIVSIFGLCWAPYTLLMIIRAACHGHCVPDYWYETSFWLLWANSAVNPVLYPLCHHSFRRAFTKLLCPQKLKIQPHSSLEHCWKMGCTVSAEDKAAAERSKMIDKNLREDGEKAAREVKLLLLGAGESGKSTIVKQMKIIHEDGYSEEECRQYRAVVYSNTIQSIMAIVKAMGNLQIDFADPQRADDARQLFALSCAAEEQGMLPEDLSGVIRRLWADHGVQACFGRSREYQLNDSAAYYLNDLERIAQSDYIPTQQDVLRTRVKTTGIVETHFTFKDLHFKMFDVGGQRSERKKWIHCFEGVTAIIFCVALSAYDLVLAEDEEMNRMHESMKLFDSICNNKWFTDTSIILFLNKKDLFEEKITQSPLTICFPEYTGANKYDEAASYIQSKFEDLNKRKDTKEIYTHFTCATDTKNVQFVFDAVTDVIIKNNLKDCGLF

As a reminder, the inhibition is how much of the control response was suppressed. Consider `COc1cccc(CC(=O)N2CCc3cnc(N4CCN(C5CCC5)CC4)nc3CC2)c1OC` [Compound 312, 2-(4-cyclobutylpiperazin-1-yl)-7-[(2,3-dimethoxyphenyl)acetyl]-6,7,8,9-tetrahydro-5H-pyrimido[4,5-d]azepine], for which the inhibition at 4 µM under setting [1] was not below 90%. As to `CCCC(C)CN1CCc2ncnc(N3CCN(C4CCC4)CC3)c2CC1` (stereo not drawn) [Compound 170, 4-(4-cyclobutylpiperazin-1-yl)-7-(2-methylpentyl)-6,7,8,9-tetrahydro-5H-pyrimido[4,5-d]azepine], the inhibition at 4 µM under setting [2] is not below 90%.

As for `O=C(c1nsc(Cl)c1Cl)N1CCc2cnc(N3CCN(C4CCC4)CC3)nc2CC1` [Compound 526, 2-(4-cyclobutylpiperazin-1-yl)-7-[(4,5-dichloroisothiazol-3-yl)carbonyl]-6,7,8,9-tetrahydro-5H-pyrimido[4,5-d]azepine], the inhibition at 4 µM under setting [3] is not below 90%. With `CCOc1cccc(C(=O)N2CCc3cnc(N4CCN(C5CCC5)CC4)nc3CC2)c1` [Compound 367, 2-(4-cyclobutylpiperazin-1-yl)-7-(3-ethoxybenzoyl)-6,7,8,9-tetrahydro-5H-pyrimido[4,5-d]azepine], under setting [1], the inhibition at 4 µM is not below 90%. On to `Cc1oc(-c2ccccc2)cc1C(=O)N1CCc2cnc(N3CCN(C4CCC4)CC3)nc2CC1` [Compound 469, 2-(4-cyclobutylpiperazin-1-yl)-7-(2-methyl-5-phenyl-3-furoyl)-6,7,8,9-tetrahydro-5H-pyrimido[4,5-d]azepine], for which the inhibition at 4 µM under setting [3] was not below 90%.

As to `CC(C)c1ccc(CC(=O)N2CCc3cnc(N4CCN(C5CCC5)CC4)nc3CC2)cc1` [Compound 521, 2-(4-cyclobutylpiperazin-1-yl)-7-[(4-isopropylphenyl)acetyl]-6,7,8,9-tetrahydro-5H-pyrimido[4,5-d]azepine], under setting [3], the inhibition at 4 µM is not below 90%. `CCC(CC)CN1CCc2cnc(N3CCN(C4CCC4)CC3)nc2CC1` [Compound 253, 2-(4-cyclobutylpiperazin-1-yl)-7-(2-ethylbutyl)-6,7,8,9-tetrahydro-5H-pyrimido[4,5-d]azepine]: under setting [1], the inhibition at 4 µM was not below 90%. Turning to `O=C(c1ccc2c(c1)CCO2)N1CCc2cnc(N3CCN(C4CCC4)CC3)nc2CC1` [Compound 375, 2-(4-cyclobutylpiperazin-1-yl)-7-(2,3-dihydro-1-benzofuran-5-ylcarbonyl)-6,7,8,9-tetrahydro-5H-pyrimido[4,5-d]azepine], the inhibition at 4 µM under setting [1] was not below 90%. Consider `c1nc(N2CCN(C3CCC3)CC2)nc2c1CN(CC1CCOC1)CC2` (stereo not drawn) [Compound 636, 2-(4-cyclobutylpiperazin-1-yl)-6-(tetrahydrofuran-3-ylmethyl)-5,6,7,8-tetrahydropyrido[4,3-d]pyrimidine], for which, under setting [2], the inhibition at 4 µM is not below 90%. As for `CSc1ccccc1C(=O)N1CCc2cnc(N3CCN(C4CCC4)CC3)nc2CC1` [Compound 408, 2-(4-cyclobutylpiperazin-1-yl)-7-[2-(methylthio)benzoyl]-6,7,8,9-tetrahydro-5H-pyrimido[4,5-d]azepine], the inhibition at 4 µM under setting [3] is not below 90%.

For the compound `c1nc2c(c(N3CCN(C4CCC4)CC3)n1)CCN(CC1CCOC1)CC2` (stereo not drawn) [Compound 171, 4-(4-cyclobutylpiperazin-1-yl)-7-(tetrahydrofuran-3-ylmethyl)-6,7,8,9-tetrahydro-5H-pyrimido[4,5-d]azepine], the inhibition at 4 µM under setting [2] is not below 90%.

For the compound `Cc1cccc(CN2CCc3cnc(N4CCN(C5CCC5)CC4)nc3CC2)c1` [Compound 233, 2-(4-cyclobutylpiperazin-1-yl)-7-(3-methylbenzyl)-6,7,8,9-tetrahydro-5H-pyrimido[4,5-d]azepine], under setting [1], the inhibition at 4 µM was not below 90%. Turning to `COc1ccccc1OCC(=O)N1CCc2cnc(N3CCN(C4CCC4)CC3)nc2CC1` [Compound 323, 2-(4-cyclobutylpiperazin-1-yl)-7-[(2-methoxyphenoxy)acetyl]-6,7,8,9-tetrahydro-5H-pyrimido[4,5-d]azepine], the inhibition at 4 µM under setting [1] was not below 90%. Regarding `CCCCOc1ccc(C(=O)N2CCc3cnc(N4CCN(C5CCC5)CC4)nc3CC2)cc1` [Compound 382, 7-(4-butoxybenzoyl)-2-(4-cyclobutylpiperazin-1-yl)-6,7,8,9-tetrahydro-5H-pyrimido[4,5-d]azepine], the inhibition at 4 µM under setting [3] was not below 90%. On to `CC(C)c1ccc(CN2CCc3c(ncnc3N3CCN(C4CCC4)CC3)C2)cc1` [Compound 80], for which, under setting [2], the inhibition at 4 µM is not below 90%.

As for `O=C(/C=C/c1ccccc1C(F)(F)F)N1CCc2cnc(N3CCN(C4CCC4)CC3)nc2CC1` [Compound 580, 2-(4-cyclobutylpiperazin-1-yl)-7-[(2E)-3-[2-(trifluoromethyl)phenyl]prop-2-enoyl]-6,7,8,9-tetrahydro-5H-pyrimido[4,5-d]azepine], the inhibition at 4 µM under setting [3] was not below 90%. For `COc1cc(Br)c(C(=O)N2CCc3cnc(N4CCN(C5CCC5)CC4)nc3CC2)cc1OC` [Compound 429, 7-(2-bromo-4,5-dimethoxybenzoyl)-2-(4-cyclobutylpiperazin-1-yl)-6,7,8,9-tetrahydro-5H-pyrimido[4,5-d]azepine], under setting [3], the inhibition at 4 µM is not below 90%. On to `Cc1cccc(CN2CCc3ncnc(N4CCN(C5CCC5)CC4)c3CC2)c1` [Compound 148, 4-(4-cyclobutylpiperazin-1-yl)-7-(3-methylbenzyl)-6,7,8,9-tetrahydro-5H-pyrimido[4,5-d]azepine], for which the inhibition at 4 µM under setting [2] is not below 90%. On to `CCCC(C)C(C)N1CCc2c(ncnc2N2CCN(C3CCC3)CC2)C1` (stereo not drawn) [Compound 125, 4-(4-cyclobutylpiperazin-1-yl)-7-(1,2-dimethylpentyl)-5,6,7,8-tetrahydropyrido[3,4-d]pyrimidine], for which the inhibition at 4 µM under setting [2] was not below 90%. As for `O=C(c1ccccc1C(F)(F)F)N1CCc2cnc(N3CCN(C4CCC4)CC3)nc2CC1` [Compound 439, 2-(4-cyclobutylpiperazin-1-yl)-7-[2-(trifluoromethyl)benzoyl]-6,7,8,9-tetrahydro-5H-pyrimido[4,5-d]azepine], the inhibition at 4 µM under setting [3] was not below 90%. Regarding `CC(c1ccccc1Cl)N1CCc2c(ncnc2N2CCN(C3CCC3)CC2)C1` (stereo not drawn) [Compound 135, 7-[1-(2-chlorophenyl)ethyl]-4-(4-cyclobutylpiperazin-1-yl)-5,6,7,8-tetrahydropyrido[3,4-d]pyrimidine], the inhibition at 4 µM under setting [2] is not below 90%. Take `COc1ccc(C(=O)N2CCc3cnc(N4CCN(C5CCC5)CC4)nc3CC2)cc1OC1CCCC1` [Compound 376, 2-(4-cyclobutylpiperazin-1-yl)-7-[3-(cyclopentyloxy)-4-methoxybenzoyl]-6,7,8,9-tetrahydro-5H-pyrimido[4,5-d]azepine]: the inhibition at 4 µM under setting [1] is not below 90%. For the compound `Cc1ccc(C(C)N2CCc3c(ncnc3N3CCN(C4CCC4)CC3)C2)cc1C` (stereo not drawn) [Compound 128, 4-(4-cyclobutylpiperazin-1-yl)-7-[1-(3,4-dimethylphenyl)ethyl]-5,6,7,8-tetrahydropyrido[3,4-d]pyrimidine], the inhibition at 4 µM under setting [2] was not below 90%. `Cc1ccc(CN2CCc3cnc(N4CCN(C5CCC5)CC4)nc3CC2)cc1` [Compound 234, 2-(4-cyclobutylpiperazin-1-yl)-7-(4-methylbenzyl)-6,7,8,9-tetrahydro-5H-pyrimido[4,5-d]azepine]: the inhibition at 4 µM under setting [1] is not below 90%. Regarding `Cc1cccc(C(=O)N2CCc3cnc(N4CCN(C5CCC5)CC4)nc3CC2)c1F` [Compound 388, 2-(4-cyclobutylpiperazin-1-yl)-7-(2-fluoro-3-methylbenzoyl)-6,7,8,9-tetrahydro-5H-pyrimido[4,5-d]azepine], the inhibition at 4 µM under setting [3] was not below 90%. In the case of `COc1ccc(OC)c(Sc2ncccc2C(=O)N2CCc3cnc(N4CCN(C5CCC5)CC4)nc3CC2)c1` [Compound 500, 2-(4-cyclobutylpiperazin-1-yl)-7-({2-[(2,5-dimethoxyphenyl)thio]pyridin-3-yl}carbonyl)-6,7,8,9-tetrahydro-5H-pyrimido[4,5-d]azepine], the inhibition at 4 µM under setting [3] is not below 90%.

`Cc1ccc(CN2CCc3c(ncnc3N3CCN(C4CCC4)CC3)C2)cc1C` [Compound 91, 4-(4-cyclobutylpiperazin-1-yl)-7-(3,4-dimethylbenzyl)-5,6,7,8-tetrahydropyrido[3,4-d]pyrimidine]: the inhibition at 4 µM under setting [2] was not below 90%. For `O=C(c1ccccc1Cl)N1CCc2cnc(N3CCN(C4CCC4)CC3)nc2CC1` [Compound 436, 7-(2-chlorobenzoyl)-2-(4-cyclobutylpiperazin-1-yl)-6,7,8,9-tetrahydro-5H-pyrimido[4,5-d]azepine], the inhibition at 4 µM under setting [3] is not below 90%. On to `COc1cccc(OCC(=O)N2CCc3cnc(N4CCN(C5CCC5)CC4)nc3CC2)c1` [Compound 324, 2-(4-cyclobutylpiperazin-1-yl)-7-[(3-methoxyphenoxy)acetyl]-6,7,8,9-tetrahydro-5H-pyrimido[4,5-d]azepine], for which the inhibition at 4 µM under setting [1] is not below 90%. Turning to `O=C(C1CCOC1)N1CCc2c(ncnc2N2CCN(C3CCC3)CC2)C1` (stereo not drawn) [Compound 58, 4-(4-cyclobutylpiperazin-1-yl)-7-(tetrahydrofuran-3-ylcarbonyl)-5,6,7,8-tetrahydropyrido[3,4-d]pyrimidine], the inhibition at 4 µM under setting [2] is not below 90%. Take `O=C(CC1CCCC1)N1CCc2cnc(N3CCN(C4CCC4)CC3)nc2CC1` [Compound 210, 2-(4-cyclobutylpiperazin-1-yl)-7-(cyclopentylacetyl)-6,7,8,9-tetrahydro-5H-pyrimido[4,5-d]azepine]: the inhibition at 4 µM under setting [1] was not below 90%. As for `COc1ccc(OC)c(CN2CCc3c(ncnc3N3CCN(C4CCC4)CC3)C2)c1` [Compound 95, 4-(4-cyclobutylpiperazin-1-yl)-7-(2,5-dimethoxybenzyl)-5,6,7,8-tetrahydropyrido[3,4-d]pyrimidine], the inhibition at 4 µM under setting [2] was not below 90%. Regarding `O=C(c1c(Cl)cccc1Cl)N1CCc2cnc(N3CCN(C4CCC4)CC3)nc2CC1` [Compound 435, 2-(4-cyclobutylpiperazin-1-yl)-7-(2,6-dichlorobenzoyl)-6,7,8,9-tetrahydro-5H-pyrimido[4,5-d]azepine], the inhibition at 4 µM under setting [3] is not below 90%.
